Experimental data published in the supplement of paper PMC6045584.
± gives the standard deviation of the averaged measurements.

Experiments:
Assay in all cases: surviving fraction relative to DMSO-only wells; higher = less growth inhibition
Settings in all cases: exposure time: 5 days
YM155 = compound: COCC[n+]1c2c(n(Cc3cnccn3)c1C)C(=O)c1ccccc1C2=O [YM155]
Method in brief: (§1)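 Log-phase tumour cells were seeded at 250–500 per well in 384-well plates and, from 24 hours after seeding, exposed continuously for five days to inhibitors at 0.5, 1, 5, 10, 50, 100, 500 and 1000 nM. Surviving fraction is CellTiter-Glo luminescence normalised to the median of DMSO-only wells. Luminescence was measured after 10 minutes at room temperature, and only lines screened three times with replicate Pearson r >0.7 and median Z' >0.3 were kept.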

CELECOXIB = compound: Cc1ccc(-c2cc(C(F)(F)F)nn2-c2ccc(S(N)(=O)=O)cc2)cc1 [CELECOXIB]
Method in brief: as §1

GEFITINIB = compound: COc1cc2ncnc(Nc3ccc(F)c(Cl)c3)c2cc1OCCCN1CCOCC1 [GEFITINIB]
Method in brief: as §1

[1] = compound: CC(=O)c1c(C)c2cnc(Nc3ccc(N4CCNCC4)cn3)nc2n(C2CCCC2)c1=O
Method in brief: as §1

OSI-906 = compound: C[C@]1(O)C[C@@H](c2nc(-c3ccc4ccc(-c5ccccc5)nc4c3)c3c(N)nccn32)C1 [OSI-906]
Method in brief: as §1

SG31 HEADNECK
surviving fraction (YM155; 0.5 nM): 1.01 ± 0.095 | surviving fraction (YM155; 1 nM): 1.07 ± 0.074 | surviving fraction (YM155; 5 nM): 0.883 ± 0.062 | surviving fraction (YM155; 10 nM): 0.893 ± 0.11 | surviving fraction (YM155; 50 nM): 0.391 ± 0.13 | surviving fraction (YM155; 100 nM): 0.291 ± 0.15 | surviving fraction (YM155; 500 nM): 0.0993 ± 0.037 | surviving fraction (YM155; 1000 nM): 0.104 ± 0.064 | surviving fraction (CELECOXIB; 0.5 nM): 1.27 ± 0.19 | surviving fraction (CELECOXIB; 1 nM): 1.4 ± 0.5 | surviving fraction (CELECOXIB; 5 nM): 1.11 ± 0.21 | surviving fraction (CELECOXIB; 10 nM): 1.11 ± 0.25 | surviving fraction (CELECOXIB; 50 nM): 1.15 ± 0.17 | surviving fraction (CELECOXIB; 100 nM): 1.1 ± 0.063 | surviving fraction (CELECOXIB; 500 nM): 1.63 ± 0.2 | surviving fraction (CELECOXIB; 1000 nM): 1.52 ± 0.15 | surviving fraction (GEFITINIB; 0.5 nM): 1.14 ± 0.13 | surviving fraction (GEFITINIB; 1 nM): 1.09 ± 0.18 | surviving fraction (GEFITINIB; 5 nM): 1.1 ± 0.28 | surviving fraction (GEFITINIB; 10 nM): 1.11 ± 0.24 | surviving fraction (GEFITINIB; 50 nM): 0.855 ± 0.24 | surviving fraction (GEFITINIB; 100 nM): 0.845 ± 0.23 | surviving fraction (GEFITINIB; 500 nM): 0.732 ± 0.2 | surviving fraction (GEFITINIB; 1000 nM): 0.54 ± 0.11 | surviving fraction ([1]; 0.5 nM): 1.22 ± 0.17 | surviving fraction ([1]; 1 nM): 1.08 ± 0.19 | surviving fraction ([1]; 5 nM): 0.988 ± 0.21 | surviving fraction ([1]; 10 nM): 0.911 ± 0.13 | surviving fraction ([1]; 50 nM): 0.976 ± 0.071 | surviving fraction ([1]; 100 nM): 0.977 ± 0.24 | surviving fraction ([1]; 500 nM): 1.08 ± 0.13 | surviving fraction ([1]; 1000 nM): 1.14 ± 0.19 | surviving fraction (OSI-906; 0.5 nM): 0.867 ± 0.15 | surviving fraction (OSI-906; 1 nM): 0.994 ± 0.057 | surviving fraction (OSI-906; 5 nM): 0.84 ± 0.045 | surviving fraction (OSI-906; 10 nM): 0.985 ± 0.056 | surviving fraction (OSI-906; 50 nM): 1 ± 0.22 | surviving fraction (OSI-906; 100 nM): 0.833 ± 0.1 | surviving fraction (OSI-906; 500 nM): 0.615 ± 0.042 | surviving fraction (OSI-906; 1000 nM): 0.493 ± 0.042
